Measurements as given in patent US20260041622A1, “Reduction of Signs of Skin Aging” (CarboCode S.A., priority 2022, published 2026).

Columns and labels:
[1] = test system: Reconstructed Human Epidermis (RHE); test: Reconstructed Human Epidermis (RHE) treated topically with ceramide in base emulsion, LC-MS/MS proteomics; type: cell-based; conditions: application on keratinocytes
Procedure: Material and methods: Reconstructed Human Epidermis (RHE) cell culture is used, as this system mimics the in vivo 3D structure of epidermal tissue as well as the conditions and processes that occur in normal epidermis. RHE are cultured using the medium provided by the manufacturer until analysis. RHE are maintained in survival for 24 hours, before RHE are topically treated with the respective ceramide in a base emulsion for 24 h. 3 RHE are treated with base emulsion alone and 3 more remained untreated as a control batch (Ctrl). RHE are incubated under classical cell culture conditions (37° C., 5% CO2).
Sample preparation and LC-MS/MS analysis: Protein is extracted using the Pierce Total Protein Extraction Kit (Thermo Fisher) according to manufacturer's recommendations. The protein is mixed with Laemmli buffer and heated to 37° C. for 30 min. Protein concentration is determined by the BCA method and standardized for all samples. The samples are separated by SDS-PAGE and digested with trypsin overnight. The peptides generated are acidified and separated. The mass spectra are queried using Proteome Discoverer (version 2.5). The resulting MS/MS data are queried against the Homo sapiens proteome UP000005640 (20371 reviewed entries). Results are filtered based on unique peptides >2, and global peptide scores. Analyses are performed using Proteome Discoverer 2.5 to check for overall sample quality.
Bioinformatics and statistical analysis: Proteomic analysis returned a mean total of 34961 high-quality peptides corresponding to a mean 2422 identifiable and quantifiable RHE proteins among conditions. A summary of proteins differentially expressed within conditions is provided in Annex 3. Proteins with a p-value 0.05 in at least one of the concentrations tested for a lipid are considered significant and used for pairwise comparisons. Relevant proteins are classified by their biological processes and associated pathways using the publicly available gene ontology (GO) database provided by the Gene Ontology Consortium and Reactome. Interactome analysis was performed using Cytoscape combined with STRING.

[2] = test system: Laminin 5; test: Laminin-5 immunostaining along the dermal-epidermal junction of living human skin explants; type: cell-based; conditions: 0.1% CNS18 in basic emulsion, topical, 4 days of treatment
Procedure: (§1) Human skin explants of an average diameter of 12 mm (±1 mm) were prepared on an abdoplasty coming from a person with a phototype II according to Fitzpatrick skin colour classification. The explants were kept in survival in BEM culture medium (BIO-EC's Explants Medium) at 37° C. in a humid, 5%—CO2 atmosphere.
(§2) The tested products E and P were applied topically at a rate of […] per 1 cm^2 explant (≈2 mg/cm^2), and spread using a small spatula on day 0 (D0), D2, D4 and D6. […] The culture medium was half renewed (l ml per well) on D2, D4 and D6.
(§3) On D0, the 3 explants from the batch TO were collected and cut into two parts. Half was fixed in buffered formalin solution, […] was frozen at −80° C. On D4 and D8, 3 explants from the concerned batches were collected and treated in the same way as in D0.
After fixation for 24 hours in buffered formalin, the samples were dehydrated and impregnated in paraffin using a Leica PEARL dehydration automat. The samples were embedded using a Leica EG 1160 embedding station. 5-μm-thick sections were made using a Leica RM 2125 Minot-type microtome, and the sections were mounted on Superfrost® histological glass slides. The frozen samples were cut into 7-μm-thick sections using a Leica CM 3050 cryostat. Sections were then mounted on Superfrost® plus silanized glass slides. […]
The immunostaining was assessed by microscopical observation.

[3] = test system: Collagen IV; test: Collagen IV immunostaining along the dermal-epidermal junction of living human skin explants; type: cell-based; conditions: 0.1% CNS18 in basic emulsion, topical, 8 days of treatment
Procedure: as §1, §2, §3
After fixation for 24 hours in buffered formalin, the samples were dehydrated and impregnated in paraffin using a Leica PEARL dehydration automat. The samples were embedded using a Leica EG 1160 embedding station. […]
Collagen IV immunostaining was performed on frozen skin sections with a monoclonal anti-collagen IV antibody (Dako, ref M0785, clone CIV 22) diluted at 1:25 in PBS-BSA 0.3%-Tween 20 at 0.05% and incubated for 1 h at room temperature. […] The immunostaining was assessed by microscopical observation.

[4] = test system: IL-1α; test: IL-1α ELISA quantification in BEM culture medium of skin explants; type: cell-based, human; conditions: 0.05% GlcCNS18 in basic emulsion, topical
Procedure: Human skin explants of an average diameter of 11 mm (+1 mm) were prepared on an abdoplasty coming from a person with a II phototype according to Fitzpatrick skin colour classification. The explants were kept in survival in BEM culture medium (BIO-EC's Explants Medium) at 37° C. in a humid, 5%—CO2 atmosphere.
The tested products E and P were applied topically at a rate of 2 μL per 1 cm^2 explant (2 mg/cm^2), and spread using a small spatula on day 0 (D0), D1, D2 and D5. […] The culture medium was half renewed (1 ml per well) on D1, D2 and completely renewed (2 mL per well) on D5.
On D0, the 3 explants from the batch TO were collected and cut into two parts. One part was fixed in buffered formalin solution, and the other part was frozen at −80° C. for histological analysis. On D6, 4 explants from the concerned batches were collected and treated in the same way than in D0. The culture medium BEM of all batches was collected on D6 (2 mL per explant) and stored at −20° C. for dosages.
IL-1α dosage was performed with human IL-1α ELISA kit (Cayman, ref 583301). According to provider's guidelines, the culture medium and the IL-1α standard were incubated with acetylcholinesterase (AChE) Fab′ conjugate binding IL-1α in wells which contain coated IL-1α antibody, overnight at 4° C. […] Absorbance at 412 nm was measured using the M200Pro Tecan microplate reader and Magellan7 software. […]

[5] = 0.01%, 0.03%, 0.15% ceramide in vehicle vs vehicle, 24 h

SMILES | regulation of NAD-dependent protein deacetylase sirtuin-2 (sirtuin-2) [1] | regulation of cytochrome c oxidase subunit 6C [1] | regulation of phosphomevalonate kinase [1] | regulation of ECM1 (Extracellular Matrix Protein 1) [1, 5] | regulation of Syndecan-1 [1, 5] | regulation of ATP synthase subunit delta (mitochondrial) [1] | regulation of ATP synthase subunit g (mitochondrial) [1] | regulation of LC3A (microtubule-associated proteins 1A/1B light chain 3A) [1] | regulation of protein S100-A2 [1] | regulation of protein S100-A9 [1] | regulation of ATP-dependent zinc metalloprotease YME1L1 [1] | regulation of NAD-dependent malic enzyme (mitochondrial) [1] | also measured
CCCCCCCCCCCCCCCCCC(=O)NC(CO)C(O)C(O)CCCCCCCCCCCCCC (centres unmarked) [Cer NP] | – | – | – | up-regulation | up-regulation | – | – | – | – | – | – | – | regulation of Keratin-17 [1]: up-regulation
CCCCCCCCCCCCCC=CC(O)C(COC1OC(CO)C(O)C(O)C1O)NC(=O)CCCCCCCCCCCCCCCCC (centres unmarked) [GlcCer] | – | up-regulation | up-regulation | – | – | up-regulation | up-regulation | up-regulation | down-regulation | down-regulation | up-regulation | up-regulation | regulation of NADH dehydrogenase [ubiquinone]1 alpha subcomplex subunit 8 [1]: up-regulation; regulation of NADH dehydrogenase [ubiquinone] iron-sulfur protein 2 (mitochondrial) [1]: up-regulation; regulation of interleukin-1-alpha (IL-1α) [1]: down-regulation; regulation of nuclear factor NF-kappa-B p105 subunit [1]: down-regulation; IL-1α release ([4]; day 6): increased; IL-1α release ([4]; day 6, listed as GlcCNS): significant increase

The next lines start with results.

regulation of NAD-dependent protein deacetylase sirtuin-2 (sirtuin-2) [1] | regulation of cytochrome c oxidase subunit 6C [1] | regulation of phosphomevalonate kinase [1] | SMILES | regulation of ECM1 (Extracellular Matrix Protein 1) [1, 5] | regulation of Syndecan-1 [1, 5] | regulation of ATP synthase subunit delta (mitochondrial) [1] | regulation of ATP synthase subunit g (mitochondrial) [1] | regulation of LC3A (microtubule-associated proteins 1A/1B light chain 3A) [1] | regulation of protein S100-A2 [1] | regulation of protein S100-A9 [1] | regulation of ATP-dependent zinc metalloprotease YME1L1 [1] | regulation of NAD-dependent malic enzyme (mitochondrial) [1] | also measured
up-regulation | upregulation | upregulation | CCCCCCCCCCCCCCCCCC(=O)NC(CO)C(O)CCCCCCCCCCCCCCC (centres unmarked) [Cer NG] | up-regulation | – | upregulation | upregulation | – | – | – | – | – | regulation of small proline-rich protein 2D [1]: up-regulation; regulation of Integrin alpha-3 [1, 5]: up-regulation
up-regulation | – | – | CCCCCCCCCCCCCC=CC(O)C(CO)NC(=O)CCCCCCCCCCCCCCCCC (centres unmarked) [Cer NS] | up-regulation | up-regulation | – | – | up-regulation | down-regulation | down-regulation | – | – | regulation of Kallikrein-5 [1]: up-regulation; regulation of cornifin-B [1]: up-regulation; regulation of Laminin-5 [1, 5]: up-regulation; regulation of Plakophilin-2 [1, 5]: up-regulation; increase in expression of laminin-5 [2]: 26%; increase in expression of collagen IV [3]: 41%
up-regulation | upregulation | upregulation | CCCCCCCCCCCCCC=CC(O)C(COC1OC(CO)C(OC2OC(CO)C(O)C(O)C2O)C(O)C1O)NC(=O)CCCCCCCCCCCCCCCCC (centres unmarked) [LacCer] | up-regulation | up-regulation | upregulation | upregulation | – | – | – | upregulation | upregulation | regulation of Glutathione S-transferase Mu 2 [1]: up-regulation; regulation of LC3B (microtubule-associated proteins 1A/1B light chain 3B) [1]: up-regulation; regulation of cystathione-gamma-lyase [1]: up-regulation; regulation of cytochrome b-cl complex subunit 9 [1]: upregulation; regulation of cytochrome c oxidase subunit 2 [1]: upregulation; regulation of cytochrome c oxidase subunit NDUFA4 [1]: upregulation
